Several values for one entry are separate records, joined by “and”; a condition that tells them apart may be missing. Equal values may be shown once. Read-outs that look alike come from different tables or passages of the source.
Assays:
[1] = biological target: JAK2 (Homo sapiens (Human), UniProt O60674); assay: Z′-Lyte kinase inhibitory activity test; format: biochemical
Description: (§1) Test method: Firstly, test compounds were prepared into 10 mM stock solution with DMSO, and continuously diluted into 10 concentrations at a 3-fold gradient for later use. 5X reaction buffer was diluted with deionized water into 1×reaction buffer (50 mM HEPES pH 7.5, 0.01% Brij-35, 10 mM MgCl2, 1 mM EGTA), which was used to prepare a mixture of kinase and peptide substrate, as well as a phosphorylated peptide substrate solution. The kinase concentration was determined based on enzyme titration, and the final concentration of peptide substrate and phosphorylated peptide substrate was 2 μM. 5 μL of mixture substrate of kinase and peptide substrate was added to each well on the 384 well plate. Then 5 nL of the test compound (starting with a final concentration of 10 μM) was added with an Echo520 Sampler. […] An additional 100% phosphorylation well (5 μL phosphorylated peptide substrate solution), a 0% phosphorylated well (5 μL of a mixture of kinase and peptide substrate, without test compounds and ATP), and a 0% inhibitory well (5 μL of a mixture of kinase and peptide substrate and appropriate concentration of ATP) were set as control. Two repeats were set for each concentration. The above reaction system was incubated at 30° C. for 1.5 hours. […] 2.5 μL of the diluted mixture was added to each well and the system was incubated at 30° C. for another 1 hour. […] The substrate phosphorylation rate was obtained by calculating the ratio, and the activity of the kinase and the effect of the inhibitor on the kinase was further calculated. Every experiment was repeated at least three times.

[2] = biological target: JAK3 (Homo sapiens (Human), UniProt P52333); assay: Z′-Lyte kinase inhibitory activity test; format: biochemical; conditions: for JAK3 kinase inhibitory activity and selectivity (in words): summary of Table 3, activity maintained at ATP 1 mM
Description: as §1

[3] = biological target: TYK2 (Homo sapiens (Human), UniProt P29597); assay: Z′-Lyte kinase inhibitory activity test; format: biochemical; conditions: ATP concentration Km
Description: as §1

[4] = biological target: JAK1 (Homo sapiens (Human), UniProt P23458); assay: Z′-Lyte kinase inhibitory activity test; format: biochemical; conditions: ATP concentration Km
Description: as §1

[5] = system: human T lymphocyte leukemia cell line HuT78; assay: CCK-8 in vitro proliferation inhibition; format: cell-based; conditions: read-out: Inhibitory activity (IC50) on cell proliferation, HUT78
Description: (§2) Cell lines: human chronic myeloid leukemia cell line K562, human acute myeloid leukemia cell line U937, human T lymphocyte leukemia cell line HuT78, and human T lymphoblastic lymphoma cell line Jurkat. Cells were purchased from the Chinese Academy of Sciences Stem Cell Bank or ATCC.
(§3) […] were cultured overnight and suspended cells were directly stimulated with drugs. […] Two repeats were set for each concentration, with a final volume of 200 μL. […] The absorbance values at 450 nm and 650 nm were measured using a microplate reader, and the increment Z (A450-A650) was derived. The inhibitory rate of drugs on cell growth was calculated by GraphPad Prism 8.0.0 through the following formula:
(§4) Inhibition rate (%)(ODcontrol−ODdosing)/ODcontrol×100%
(§5) The half inhibitory concentration (IC50) was calculated. Every experiment was repeated at least three times.

[6] = system: human T lymphoblastic lymphoma cell line Jurkat; assay: CCK-8 in vitro proliferation inhibition; format: cell-based; conditions: 72 hours, read-out: Inhibitory activity (IC50) on cell proliferation, JURKAT
Description: as §2, §3, §4, §5

[7] = system: human chronic myeloid leukemia cell line K562; assay: CCK-8 in vitro proliferation inhibition; format: cell-based; conditions: read-out: Inhibitory activity (IC50) on cell proliferation, K562
Description: as §2, §3, §4, §5

[8] = system: human acute myeloid leukemia cell line U937; assay: CCK-8 in vitro proliferation inhibition; format: cell-based; conditions: read-out: Inhibitory activity (IC50) on cell proliferation, U937
Description: as §2, §3, §4, §5

Chain of TYK2 (P29597 whole entry): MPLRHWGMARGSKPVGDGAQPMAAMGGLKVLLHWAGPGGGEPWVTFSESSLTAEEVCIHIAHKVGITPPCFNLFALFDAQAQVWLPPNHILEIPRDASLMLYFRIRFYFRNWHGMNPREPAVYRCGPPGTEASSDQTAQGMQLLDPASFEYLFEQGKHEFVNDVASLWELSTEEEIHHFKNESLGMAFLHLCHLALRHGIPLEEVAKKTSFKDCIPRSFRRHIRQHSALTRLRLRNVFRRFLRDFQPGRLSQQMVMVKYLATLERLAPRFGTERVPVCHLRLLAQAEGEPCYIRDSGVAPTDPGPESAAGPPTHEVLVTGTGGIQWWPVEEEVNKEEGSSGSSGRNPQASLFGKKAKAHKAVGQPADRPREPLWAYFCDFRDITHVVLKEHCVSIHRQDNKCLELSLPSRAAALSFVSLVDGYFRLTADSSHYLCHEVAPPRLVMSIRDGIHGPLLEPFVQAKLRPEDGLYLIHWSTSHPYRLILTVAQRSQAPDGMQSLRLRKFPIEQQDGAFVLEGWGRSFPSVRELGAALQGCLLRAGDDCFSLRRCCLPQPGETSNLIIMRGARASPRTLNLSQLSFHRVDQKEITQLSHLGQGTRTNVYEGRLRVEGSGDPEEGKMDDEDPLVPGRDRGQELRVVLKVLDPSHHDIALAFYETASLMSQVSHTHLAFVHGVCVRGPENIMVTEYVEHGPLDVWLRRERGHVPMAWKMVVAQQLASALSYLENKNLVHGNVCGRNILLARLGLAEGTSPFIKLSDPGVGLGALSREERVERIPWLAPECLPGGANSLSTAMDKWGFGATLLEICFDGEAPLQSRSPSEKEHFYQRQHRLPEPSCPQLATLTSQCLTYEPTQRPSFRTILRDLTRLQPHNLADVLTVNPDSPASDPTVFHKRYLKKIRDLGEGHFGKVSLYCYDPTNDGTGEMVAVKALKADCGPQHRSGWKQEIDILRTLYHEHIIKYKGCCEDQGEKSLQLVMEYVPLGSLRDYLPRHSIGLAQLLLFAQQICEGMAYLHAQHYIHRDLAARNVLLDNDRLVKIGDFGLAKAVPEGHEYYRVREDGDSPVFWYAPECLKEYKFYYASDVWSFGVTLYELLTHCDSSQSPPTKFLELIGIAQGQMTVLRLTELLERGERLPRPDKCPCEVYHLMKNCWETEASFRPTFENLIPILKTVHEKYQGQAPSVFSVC
Chain of JAK2 (O60674 whole entry): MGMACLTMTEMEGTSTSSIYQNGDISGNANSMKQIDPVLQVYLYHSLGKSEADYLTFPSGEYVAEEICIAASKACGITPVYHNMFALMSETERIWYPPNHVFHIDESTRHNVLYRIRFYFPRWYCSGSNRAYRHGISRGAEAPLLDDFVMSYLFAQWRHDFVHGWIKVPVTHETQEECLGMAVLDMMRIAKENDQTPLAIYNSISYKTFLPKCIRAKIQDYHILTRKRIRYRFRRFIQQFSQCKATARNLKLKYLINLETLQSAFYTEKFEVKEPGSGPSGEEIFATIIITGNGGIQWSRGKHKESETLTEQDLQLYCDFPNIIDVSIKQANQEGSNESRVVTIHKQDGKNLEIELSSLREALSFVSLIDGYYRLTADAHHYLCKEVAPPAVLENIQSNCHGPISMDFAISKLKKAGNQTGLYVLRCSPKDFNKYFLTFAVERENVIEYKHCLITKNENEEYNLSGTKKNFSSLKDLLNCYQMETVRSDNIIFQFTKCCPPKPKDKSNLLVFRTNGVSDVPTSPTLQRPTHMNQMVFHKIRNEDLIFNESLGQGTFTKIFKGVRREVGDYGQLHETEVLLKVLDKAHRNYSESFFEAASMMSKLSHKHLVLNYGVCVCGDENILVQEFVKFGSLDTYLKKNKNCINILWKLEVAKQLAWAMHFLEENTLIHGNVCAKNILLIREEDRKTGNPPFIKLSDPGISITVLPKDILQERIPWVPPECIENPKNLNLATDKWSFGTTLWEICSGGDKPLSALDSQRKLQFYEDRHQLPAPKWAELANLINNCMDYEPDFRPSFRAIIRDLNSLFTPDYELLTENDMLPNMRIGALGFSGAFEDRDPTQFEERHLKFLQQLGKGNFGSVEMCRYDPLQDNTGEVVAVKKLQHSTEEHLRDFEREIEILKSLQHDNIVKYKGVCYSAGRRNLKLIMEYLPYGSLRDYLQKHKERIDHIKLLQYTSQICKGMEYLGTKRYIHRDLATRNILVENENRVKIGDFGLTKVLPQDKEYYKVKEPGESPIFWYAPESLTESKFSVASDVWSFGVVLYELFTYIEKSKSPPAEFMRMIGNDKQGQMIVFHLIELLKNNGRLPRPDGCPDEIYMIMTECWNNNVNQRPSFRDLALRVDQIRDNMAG
Chain of JAK1 (P23458 whole entry): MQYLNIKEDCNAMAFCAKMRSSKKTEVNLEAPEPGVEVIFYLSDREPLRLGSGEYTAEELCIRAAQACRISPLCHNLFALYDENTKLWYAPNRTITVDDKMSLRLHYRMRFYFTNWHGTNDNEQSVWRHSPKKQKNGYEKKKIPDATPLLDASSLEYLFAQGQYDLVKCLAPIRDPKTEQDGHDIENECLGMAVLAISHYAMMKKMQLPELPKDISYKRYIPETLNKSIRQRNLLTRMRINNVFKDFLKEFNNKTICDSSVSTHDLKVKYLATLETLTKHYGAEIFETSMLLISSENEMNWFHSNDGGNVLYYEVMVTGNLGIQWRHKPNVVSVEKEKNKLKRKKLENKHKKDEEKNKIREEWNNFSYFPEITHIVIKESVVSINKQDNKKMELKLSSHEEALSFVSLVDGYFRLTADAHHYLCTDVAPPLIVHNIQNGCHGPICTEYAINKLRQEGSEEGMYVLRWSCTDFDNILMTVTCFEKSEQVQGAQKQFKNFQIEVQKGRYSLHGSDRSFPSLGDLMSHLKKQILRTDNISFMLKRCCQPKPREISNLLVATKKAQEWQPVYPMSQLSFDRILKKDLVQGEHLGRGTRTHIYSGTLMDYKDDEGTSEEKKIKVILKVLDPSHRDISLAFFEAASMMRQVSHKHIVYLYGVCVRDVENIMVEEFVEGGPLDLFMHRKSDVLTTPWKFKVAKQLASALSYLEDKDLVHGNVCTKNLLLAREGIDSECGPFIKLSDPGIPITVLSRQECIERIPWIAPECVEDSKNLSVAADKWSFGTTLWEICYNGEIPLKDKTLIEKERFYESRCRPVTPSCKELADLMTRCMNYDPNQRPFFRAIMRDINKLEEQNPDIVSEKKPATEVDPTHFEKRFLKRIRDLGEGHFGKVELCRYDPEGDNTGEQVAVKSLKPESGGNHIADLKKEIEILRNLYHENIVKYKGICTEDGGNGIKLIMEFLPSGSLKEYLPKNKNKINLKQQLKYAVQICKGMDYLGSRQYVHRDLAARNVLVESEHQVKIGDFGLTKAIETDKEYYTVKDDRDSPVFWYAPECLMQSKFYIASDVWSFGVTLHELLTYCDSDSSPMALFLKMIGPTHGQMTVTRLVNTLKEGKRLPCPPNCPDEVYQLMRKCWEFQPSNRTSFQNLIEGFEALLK
Chain of JAK3 (P52333 whole entry): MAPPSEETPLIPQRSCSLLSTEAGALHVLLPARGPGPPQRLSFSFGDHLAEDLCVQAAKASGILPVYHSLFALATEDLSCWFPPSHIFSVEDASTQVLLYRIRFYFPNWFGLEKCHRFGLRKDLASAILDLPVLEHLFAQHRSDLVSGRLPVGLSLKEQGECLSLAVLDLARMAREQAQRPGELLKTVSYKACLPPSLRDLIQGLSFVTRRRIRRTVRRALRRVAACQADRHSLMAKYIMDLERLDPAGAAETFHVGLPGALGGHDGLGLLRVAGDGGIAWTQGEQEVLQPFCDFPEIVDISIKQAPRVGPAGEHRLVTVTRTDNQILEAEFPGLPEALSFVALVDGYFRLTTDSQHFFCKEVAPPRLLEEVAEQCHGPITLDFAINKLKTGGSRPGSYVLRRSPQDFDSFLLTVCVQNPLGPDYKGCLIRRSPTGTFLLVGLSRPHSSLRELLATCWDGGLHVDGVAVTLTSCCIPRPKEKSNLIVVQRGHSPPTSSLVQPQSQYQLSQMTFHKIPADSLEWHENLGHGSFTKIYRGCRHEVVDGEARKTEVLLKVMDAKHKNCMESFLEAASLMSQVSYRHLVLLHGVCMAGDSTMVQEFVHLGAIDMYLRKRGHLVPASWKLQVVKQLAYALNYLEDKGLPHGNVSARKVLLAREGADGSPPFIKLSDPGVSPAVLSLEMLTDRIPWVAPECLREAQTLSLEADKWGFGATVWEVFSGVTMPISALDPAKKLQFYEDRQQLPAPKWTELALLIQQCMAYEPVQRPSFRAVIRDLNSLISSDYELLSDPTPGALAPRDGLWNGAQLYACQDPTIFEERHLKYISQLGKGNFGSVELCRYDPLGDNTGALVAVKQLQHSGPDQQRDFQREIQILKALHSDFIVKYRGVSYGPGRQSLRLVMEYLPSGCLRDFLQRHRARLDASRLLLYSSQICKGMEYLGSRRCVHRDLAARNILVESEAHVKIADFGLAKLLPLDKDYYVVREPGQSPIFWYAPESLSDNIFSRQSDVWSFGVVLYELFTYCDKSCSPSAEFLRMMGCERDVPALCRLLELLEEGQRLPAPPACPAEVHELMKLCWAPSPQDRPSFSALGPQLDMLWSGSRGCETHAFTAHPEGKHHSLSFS

Compound	IC50 ([1]; ATP concentration Km) [nM]	IC50 ([2]; ATP concentration 1 mM) [µM]	IC50 ([2]; ATP concentration Km) [µM]	IC50 [3] [nM]	IC50 [4] [nM]	IC50 ([5]; Homo sapiens, HuT78, 72 hours) [nM]	IC50 ([6]; Homo sapiens, Jurkat) [nM]	IC50 ([7]; Homo sapiens, K562, 72 hours) [nM]	IC50 ([8]; Homo sapiens, U-937, 72 hours) [nM]	JAK3 kinase inhibitory activity and selectivity (in words) [2]	IC50 [1] [nM]	IC50 [2]	IC50 ([5]; 72 hours) [nM]	IC50 [6] [nM]	IC50 ([7]; 72 hours) [nM]	IC50 ([8]; 72 hours) [nM]	IC50 ([2]; ATP concentration 1 mM, in μM) [µM]
CN(C)C/C=C/C(=O)Nc1cc(Nc2ncc(Cl)c(O[C@@H]3CO[C@H]4[C@@H]3OC[C@H]4O)n2)ccc1N1CCC(N2CCN(C)CC2)CC1 [LS 5-81]	2360	4.19	0.057	278	4880	1060	3050	5980	227								
C=CC(=O)Nc1cc(Nc2ncc(Cl)c(O[C@@H]3CO[C@H]4[C@@H]3OC[C@H]4O)n2)ccc1N1CCC(N(C)C)C1 (some centres unmarked) [LS 5-150]	606	0.00174	0.00198	186	270	272	275	897	15.8	strong and selective JAK3 kinase inhibitory activity							
C=CC(=O)Nc1cccc(Nc2ncc(Cl)c(O[C@@H]3CO[C@H]4[C@@H]3OC[C@H]4O)n2)c1 [LS 5-77]				93.9	556					strong and selective JAK3 kinase inhibitory activity	1400	0.00125 µM and 0.00239 µM	447	1660	103	106	
C=CC(=O)Nc1cc(Nc2ncc(Cl)c(O[C@@H]3CO[C@H]4[C@@H]3OC[C@H]4O)n2)ccc1N(C)CCO [LS 5-74]	1520	0.00737	0.00426	226	1120	448	3950	91.8	181	strong and selective JAK3 kinase inhibitory activity							
C=CC(=O)Nc1cc(Nc2ncc(Cl)c(O[C@@H]3CO[C@H]4[C@@H]3OC[C@H]4O)n2)ccc1N1CCC(N2CCN(C)CC2)CC1 [LS 5-12, N-(5-((5-chloro-4-(((3R,3aR,6R, 6aR)-6-hydroxyhexahydrofurano[3,2-b]furan-3-yl)oxygen)pyrimidin-2-yl)amino)-2-(4-(4-methylpiperazin-1-yl)piperidin-1-yl)phenyl) acrylamide]				369	1540					strong and selective JAK3 kinase inhibitory activity	1030		31.7	434	290	35.9	
C=CC(=O)Nc1cc(Nc2ncc(Cl)c(O[C@@H]3CO[C@H]4[C@@H]3OC[C@H]4O)n2)ccc1N1CCC2(CCN(C)CC2)CC1 [LS 5-91]	1060	0.0206	0.0055	233	895	19.2	34.1	70.9	5.78	strong and selective JAK3 kinase inhibitory activity							
C=CC(=O)Nc1cc(Nc2ncc(Cl)c(O[C@@H]3CO[C@H]4[C@@H]3OC[C@H]4O)n2)ccc1F [LS 5-62]				860	1060					strong and selective JAK3 kinase inhibitory activity	11000	0.0022 µM and 0.00226 µM	423	2460	637	111	
COc1cc(Nc2ncc(Cl)c(O[C@@H]3CO[C@H]4[C@@H]3OC[C@H]4O)n2)ccc1N1CCC(N2CCN(C)CC2)CC1 [LS 4-143]	541		0.0474	421	618	3380	6340	354	739								> 10
C/C=C/C(=O)Nc1cc(Nc2ncc(Cl)c(O[C@@H]3CO[C@H]4[C@@H]3OC[C@H]4O)n2)ccc1N1CCC(N2CCN(C)CC2)CC1 [LS 5-72]	1540	4.38	0.0905	430	2670	928	2780	2760	524								
C=CC(=O)Nc1cc(Nc2ncc(Cl)c(O[C@@H]3CO[C@H]4[C@@H]3OC[C@H]4O)n2)ccc1N1C[C@H]2C[C@@H]1CN2C [LS 5-154]	524	0.00159	0.00156	188	800	717	346	2410	34	strong and selective JAK3 kinase inhibitory activity							
CN1CCN(C2CCN(c3ccc(Nc4ncc(Cl)c(O[C@@H]5CO[C@H]6[C@@H]5OC[C@H]6O)n4)cc3)CC2)CC1 [LS 4-145]	981	4.29	0.066	301	470	2390	9030	822	516								
C=CC(=O)Nc1cc(Nc2ncc(Cl)c(O[C@@H]3CO[C@H]4[C@@H]3OC[C@H]4O)n2)ccc1N1CCC(N(C)C)CC1 [LS 5-102]	437	0.00268	0.0025	241	1040	92.4	290	866	21.1	strong and selective JAK3 kinase inhibitory activity							
C=CC(=O)Nc1cc(Nc2ncc(Cl)c(O[C@@H]3CO[C@H]4[C@@H]3OC[C@H]4O)n2)ccc1N1CCOCC1 [LS 5-66]	1160	0.0144	0.0059	335	1120	1090	2640	1860	87.5	strong and selective JAK3 kinase inhibitory activity							
C=CC(=O)Nc1cc(Nc2ncc(Cl)c(O[C@@H]3CO[C@H]4[C@@H]3OC[C@H]4O)n2)ccc1N1CCN(CC)CC1 [LS 5-143]	362	0.00217	0.00219	166	481	75.3	128	216	12	strong and selective JAK3 kinase inhibitory activity							
C=CC(=O)Nc1cc(Nc2ncc(Cl)cn2)ccc1N1CCC(N2CCN(C)CC2)CC1 [LS 5-126, N-(5-((5-chloropyrimidin-2-yl)amino)-2-(4-(4-methylpiperazin-1-yl)piperidin-1-yl)phenyl) acrylamide]	2080	0.00435	0.0039	3120	4770	463	551	39.9	69.2								
C=CC(=O)Nc1cc(Nc2ncc(Cl)c(O[C@@H]3CO[C@H]4[C@@H]3OC[C@H]4O)n2)ccc1N1C[C@@H]2C[C@H]1CO2 [LS 5-152, N-(2-(((1S,4S)-2-oxa-5-azabicyclic[2.2.1]heptane-5-yl)-5-(5-chloro-4-(((3R,3aR,6R, 6aR)-6-hydroxyhexahydrofurano[3,2-b]furan-3-yl)oxygen)pyrimidin-2-yl)amino)phenyl) acrylamide]		0.00129	0.0015	148	190	428	288	47.2	19.6								

— US20230348487A1, “2-AMINOPYRIMIDINE COMPOUND AND PHARMACEUTICAL COMPOSITION THEREOF AND APPLICATION THEREOF” (GUANGZHOU SALUSTIER BIOSCIENCES CO., LTD., priority 2021, published 2023)
